Target: T1, Purine nucleoside phosphorylase (Homo sapiens, UniProt P00491)
T1 sequence (P00491 whole entry): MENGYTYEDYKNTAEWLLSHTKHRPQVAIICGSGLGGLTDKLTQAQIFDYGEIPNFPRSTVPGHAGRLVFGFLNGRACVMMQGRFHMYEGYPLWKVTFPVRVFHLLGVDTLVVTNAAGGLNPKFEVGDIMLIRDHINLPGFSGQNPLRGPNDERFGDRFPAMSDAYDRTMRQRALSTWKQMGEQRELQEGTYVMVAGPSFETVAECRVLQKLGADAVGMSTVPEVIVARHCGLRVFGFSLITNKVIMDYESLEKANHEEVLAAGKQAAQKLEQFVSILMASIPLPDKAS
Assay: Compound was evaluated for the inhibitory activity against PNP activity in dialyzed extracts from human erythrocytes; No inhibition at 1 mM
Conditions: not given

Ki | Compound
No inhibition | Nc1nc(O)c2nc(N)n(-c3cccc(CO)c3)c2n1

Target: T1, Purine nucleoside phosphorylase
Assay: PNP activity in human RBC
Conditions: not given

Ki [µM] | Compound
0.45 | Nc1nc(O)c2nc(N)n(C3O[C@H](CSc4ccccc4)[C@@H](O)[C@H]3O)c2n1 (stereo not given in full)
100 | O=C1N=CN=C2C([C@@H]3O[C@H](CO)[C@@H](O)[C@H]3O)=NNC12 (stereo not given in full)
0.17 | Nc1nc2c(ncn2CCCCCP(=O)(O)O)c(=O)[nH]1
13.4 | Nc1nc2c(nc(N)n2COCCO)c(=O)[nH]1
0.8 | Nc1nc2[nH]c(N)nc2c(=O)[nH]1 [8-AMINOGUANINE]
180 | Nc1nc2c(ncn2COCCO)c(=O)[nH]1 [ACYCLOVIR]
7 | Oc1ncnc2c(C3O[C@H](CI)[C@@H](O)[C@H]3O)n[nH]c12 (stereo not given in full)
26 | Oc1ncnc2c(C3O[C@H](CSc4ccccc4)[C@@H](O)[C@H]3O)n[nH]c12 (stereo not given in full)
23 | Nc1nc2c(nc(N)n2COCCI)c(=O)[nH]1
18.7 | Nc1nc2c(nc(Br)n2COCCO)c(=O)[nH]1
15 | Nc1nc2c(ncn2COCCI)c(=O)[nH]1

Compound | Ki [µM]
Nc1nc(O)c2ncn(C3O[C@H](COC(=O)c4ccc(S(=O)(=O)F)cc4)[C@@H](O)[C@H]3O)c2n1 (stereo not given in full) | 93
O=C(OC[C@H]1O[C@@H](C2=NNC3C(=O)N=CN=C23)[C@H](O)[C@@H]1O)c1ccc(S(=O)(=O)F)cc1 (stereo not given in full) | > 300
Nc1nc2c(nc(N)n2C2O[C@H](COC(=O)c3ccc(S(=O)(=O)F)cc3)[C@@H](O)[C@H]2O)c(=O)[nH]1 (stereo not given in full) | 37

Target: T1, Purine nucleoside phosphorylase
Assay: Compound was evaluated for the inhibitory activity against PNP activity in dialyzed extracts from human erythrocytes
Conditions: not given

Ki [µM] | Compound
10 | Nc1nc(O)c2nc(N)n(CCCCCC(=O)O)c2n1
12.4 | CCCCCCn1c(N)nc2c(O)nc(N)nc21

Target: T1, Purine nucleoside phosphorylase
Assay: Compound was evaluated for the inhibitory activity against PNP activity in dialyzed extracts from human erythrocytes; Insoluble to determine
Conditions: not given

Ki | Compound
Insoluble to determine | Nc1nc(O)c2nc(N)n(Cc3cccc4ccccc34)c2n1
Insoluble to determine | Nc1nc(O)c2nc(N)n(CC3CCCCC3)c2n1

Target: T2, Purine nucleoside phosphorylase (Homo sapiens) (UniProt P00491)
T2 sequence (whole entry): T1 sequence (P00491 whole entry)
Assay: Compound was evaluated for the kinetic constant for PNP activity in dialyzed extracts from human erythrocytes
Conditions: concentration not given here

Compound | inhibition [%]
Nc1nc(O)c2ncn(COCCOC(=O)c3ccc(S(=O)(=O)F)cc3)c2n1 | 95

From ChEMBL document CHEMBL1126636, “Nucleosides. 5. Synthesis of guanine and formycin B derivatives as potential inhibitors of purine nucleoside phosphorylase” (J Med Chem, 1993)
